According to patent US4980349A, “Sulphonamides derived from diarylmethanes, the processes for preparing them and pharmaceutical compositions containing them” (SANOFI, priority 1986, dated 1990):
“Also recorded” adds a separate entry of the source.

Columns and labels:
[1] = system: rat hind foot carragheenin-induced oedema; assay: Carragheenin-induced oedema test; assay type: in vivo; conditions: 3 h, second experiment, Table Xa, read-out: percentage inhibition of the inflammation; for change in vivo at 25 mg/kg: 25 mg/kg oral; for change in vivo at 50 mg/kg: 50 mg/kg oral; for change in vivo at 100 mg/kg: 100 mg/kg oral
Procedure: In this test, 10 rats are used per test compound of the invention. Control batches of 10 rats also receive either the comparative compound (ketoprofen) or exclusively an NaCl solution.
The compounds of the invention are administered orally (stomach tube) one hour before the injection of carragheenin.
The carragheenin is suspended at a concentration of 1% in a 0.9% isotonic sodium chloride solution. The volume injected into the rat's foot is 0.20 ml.
The volume of the foot is measured before the injection and 3 hours later. The antagonistic effect of the products towards carragheenin is reflected in the inhibition of the volume of the oedema compared with control rats. The latter receive only isotonic NaCl solution under identical conditions.

[2] = system: foreign-body (sponge) granuloma in rats; assay: Experimental granuloma induced by foreign body, weight of the granulomas; assay type: in vivo, Wistar rats; conditions: Rattus norvegicus, po, 240 h, 10 days after implantation, Table XIb, read-out: decrease in the weight of the granulomas
Procedure: (§1) This test consists in studying the subacute cellular phase which is developed in the 8 days which follow the implantation of a foreign body, a sponge of non-resorbable plastic, in the dorsal subcutaneous connective tissue in rats.
(§2) The animals used are Wistar rats weighing 120-140 g and of the same origin, maintained under the same conditions of housing throughout the treatment (8 days).
(§3) The compounds of the invention are administered orally, in a gum suspension, in the morning in a fasted state, using an oesophageal tube.
(§4) In this experiment, on the one hand a histological study of the granulomas is performed by sampling on day 8 (results recorded in Table XIa), and on the other hand a study of the weight of the granulomas was performed 10 days after the implantation (results recorded in Table XIb).

[3] = system: rat hind foot kaolin-induced arthritis; assay: Kaolin-induced arthritis test, second experiment, acute phase (volume of the foot at the 8th hour); assay type: in vivo; conditions: po, 8 h, Table IXa; for change in vivo at 25 mg/kg / change in vivo at 50 mg/kg / change in vivo at 100 mg/kg: 8th hour, read-out: percentage significant decrease in the volume of the treated foot; for ED50: foot volume, read-out: 50% active dose
Procedure: (§5) The […] of 0.05 ml of a sterile 10% strength suspension of kaolin into the metatarsal flexor sheath of the hind foot of a rat initially induces an oedematous reaction. An inflammatory arthritis then forms.
The early oedematous reaction appears from the first hour, and reaches its maximum between the fourth hour and the sixth hour. This is the manifestation of interest. The assessment of the volume of the foot enables the action of substances on the oedematous reaction to be studied. The measurements are carried out using a Giono and Chevilard plethysmometer.
(§6) The test products are administered orally (stomach tube) one hour before the injection of the kaolin.
(§7) In a second experiment, a more elaborate study was performed in order to ascertain the effect of the products, on the one hand on the acute phase of the inflammatory reaction (measured by the volume of the foot at the 8th hour), and on the other hand on the chronic phase (activity measured by the weight of the foot at the 12th hour).
As in the previous experiment, ketoprofen was used as the comparative product:
The results are expressed as a percentage significant decrease in the volume of the treated foot compared with the controls.

[4] = system: pain threshold of brewer's yeast inflamed rat hind foot; assay: Randall and Sellitto's test (analgesic activity); assay type: in vivo; conditions: second experiment, Table XIIa; for change in vivo at 25 mg/kg: 25 mg/kg oral; for change in vivo at 25 mg/kg / change in vivo at 50 mg/kg / change in vivo at 100 mg/kg: read-out: percentage increase in the mean pain threshold; for change in vivo at 50 mg/kg: 50 mg/kg oral; for change in vivo at 100 mg/kg: 100 mg/kg oral
Procedure: Inflammation increases the sensitivity to pain, in particular to pressure, and analgesics raise the threshold of the sensitivity.
The inflammation is obtained by injecting 0.1 ml of a 20% strength aqueous suspension of brewer's yeast under the plantar aponeurosis of one of the hind feet. […] The pain threshold is assessed in terms of the force necessary and sufficient to initiate a characteristic reaction of withdrawing the foot.
The sensitivity to pain of the inflamed foot reaches a plateau 4 hours after the injection of the brewer's yeast, and then remains stable until the 6th hour. The pain threshold of the inflamed foot in control rats weighing 140 g is reached for pressures of 50 to 60 g, whereas it is around 160 g for the intact foot.
The action of the substance administered orally to series of 10 rats is expressed in terms of the percentage increase in the mean pain threshold, compared with that measured in the rats of a control series of 10 animals which have not received a compound of the invention.
The test products are administered orally (stomach tube) one hour before the injection of brewer's yeast.
The comparative compound used is ketoprofen.

[5] = system: rat hind foot kaolin-induced arthritis; assay: Kaolin-induced arthritis test, second experiment, chronic phase (weight of the foot at the 12th hour); assay type: in vivo; conditions: po, 12 h, Table IXb; for change in vivo at 25 mg/kg / change in vivo at 50 mg/kg / change in vivo at 100 mg/kg: 12th hour, read-out: percentage significant decrease in the weight of the treated foot; for ED50: foot weight, read-out: 50% active dose
Procedure: as §5, §6, §7
As in the previous experiment, ketoprofen was used as the comparative product: […]

[6] = system: foreign-body (sponge) granuloma in rats; assay: Experimental granuloma induced by foreign body, histological study; assay type: in vivo, Wistar rats; conditions: second experiment, day 8; Table XIa
Procedure: as §1
The granulomas formed are removed 8 days after the implantation; a histological study is carried out after fixing the tissue and staining sections with hematein/ eosin. The observation is more especially concerned with the cell population of the primary phase of the formation of the granulation tissue: the reticulohistocytic cells, lymphocytes and more especially the macrophages.
as §2, §3
After 8 days of treatment, the rats are sacrificed by decapitation and the granulomas removed and prepared for the purpose of histological examination.
The experiment conditions are as follows:
The animals are distributed in batches of 10;
Each test product is administered at 2 doses, of 50 and 100 mg, respectively, to 2 batches of 10 animals;
Ketoprofen is used by way of reference product at the same 2 doses and under the same conditions; and
A batch of 10 control animals receives no treatment.
as §4

[7] = system: biosynthesis of leukotrienes B4 (LTB4), human polymorphonuclear leukocytes; assay: Biosynthesis of LTB4, isomers and oxidized metabolites in human polymorphonuclear leukocytes; assay type: cell-based; conditions: Leukocyte, second experiment, read-out: Percentage inhibition of LTB4 formation
Procedure: Polymorphonuclear leukocytes are isolated from human blood and used during the 6 hours following the withdrawal. The viability of the cells is checked by trypan blue exclusion.
5×10^6 cells are incubated for 10 minutes at 37° C. in the presence of the test product dissolved in DMSO, and are stimulated with ionophore A 23187 (Galbiochem, 10 μM) in PBS buffer at pH 7.4, Ca^2+ and Mg^2+ =1 μM.
100 ng of prostaglandin B2 (PGB2), dissolved in methanol, are added at the end of the reaction to act as an internal standard.
On centrifugation, the culture supernatant is withdrawn. The latter is retrieved under argon and stored at -80° C. until analysed by HPLC.
This analysis is carried out by injecting 250 μl onto a 5 μm ODS ultrasphere column (Beckmann), with a gradient of acetonitrile (20-80%) in water, at pH 7.4.
The amounts of the different products which absorb at 269 nm, i.e. leukotrienes B4 (LTB4), isomers of LTB4 and oxidized metabolites of LTB4, are estimated by comparison with the internal standard.
The test product is used at a concentration of 40 μM.
They are expressed either as a percentage inhibition, or as a percentage increase in the production of LTB4, isomers of LTB4 and oxidized metabolites of LTB4 (designated by +).
The experimental model is the same as that described in Section 2.1. Other products are tested by comparison with the compound of the invention no. 1574, used as a control.

Compound | change in vivo at 25 mg/kg [1] | change in vivo at 50 mg/kg [1] | change in vivo at 100 mg/kg [1] | change in vivo at 25 mg/kg [2] | change in vivo at 50 mg/kg [2] | change in vivo at 100 mg/kg [2] | change in vivo at 25 mg/kg [3] | change in vivo at 50 mg/kg [3] | change in vivo at 100 mg/kg [3] | ED50 [3] | change in vivo at 25 mg/kg [4] | change in vivo at 50 mg/kg [4] | change in vivo at 100 mg/kg [4] | change in vivo at 25 mg/kg [5] | change in vivo at 50 mg/kg [5] | change in vivo at 100 mg/kg [5] | ED50 [5] | histological study of the granuloma (inflammatory connective / granulation tissue) [6] | inhibition at 40 µM [7] | ED50 ([4]; po, analgesia, read-out: 50% active dose)
O=C(O)CCCCCCCCCCNS(=O)(=O)c1ccc(Cl)c(C(=O)c2ccc(Cl)cc2)c1 [Compound 1761] | -30% | -35% | -45% | -25% | -30% | -45% | -38 ± 5% | -45 ± 5% | -50 ± 5% | 100 mg/kg | 40% | 45% | 50% | -40 ± 5% | -45 ± 5% | -50 ± 5% | 100 mg/kg | Diminished production of inflammatory granulation | 100% | 
O=C(O)CCCCCCCCCCCNS(=O)(=O)c1ccc(Cl)cc1C(=O)c1ccccc1Cl [Compound 1755] | -45% | -52% | -55% | -45% | -50% | -55% | -48 ± 5% | -50 ± 5% | -55 ± 5% | 25 mg/kg | 40% | 50% | 55% | -45% | -55% | -58% | 25 mg/kg | Granuloma poorly developed | 100% | 
O=C(O)CCCCCCCCCCNS(=O)(=O)c1ccc(Cl)c(C(=O)c2ccc(Cl)cc2Cl)c1 [Compound 1763] | -30% | -35% | -45% | -15% | -20% | -45% | -35 ± 5% | -45 ± 5% | -50 ± 5% | 100 mg/kg | 40% | 42% | 45% | -38 ± 5% | -40 ± 5% | -48 ± 5% | 100 mg/kg | Peripheral shell of low density | 100% | 
O=C(O)CCCCCCCCCCCNS(=O)(=O)c1ccc(Cl)c(C(=O)c2ccc(Cl)cc2Cl)c1 [Compound 1764] | -45% | -48% | -52% | -45% | -50% | -55% | -45 ± 5% | -55 ± 5% | -60 ± 5% | 50 mg/kg | 50% | 55% | 58% | -45 ± 5% | -52 ± 5% | -58 ± 5% | 50 mg/kg | Peripheral shell of low density; also recorded: lightly inflammatory | 100% | 25 mg/kg
